Experimental data reported in ChEMBL document CHEMBL6177998, “Rational Design of Dual Degraders by Incorporating Molecular Glue Structural Features into PROTAC Degraders” (J Med Chem, 2025).
pIC50: −log10 of the molar value. The source made the active and inactive calls. The calls are words filed in the database; no cut-off is given here.

Columns and labels:
[1] = Antiproliferative activity against human Enzalutamide-resistant LNCaP cells assessed as cell growth inhibition incubated for 72 hrs by Celltiter-lumi luminescent cell viability assay; type: functional, cell-based
[2] = molecular target: T1, Protein cereblon/Androgen receptor (Homo sapiens, UniProt P10275+Q96SW2); assay: PROTAC activity at CRBN/AR in human LNCaP cells assessed as induction of AR degradation at 20 nM by Western blot analysis; type: cell-based; conditions: time 1-36 hrs
Target sequence in this assay (P10275 whole entry, looked up): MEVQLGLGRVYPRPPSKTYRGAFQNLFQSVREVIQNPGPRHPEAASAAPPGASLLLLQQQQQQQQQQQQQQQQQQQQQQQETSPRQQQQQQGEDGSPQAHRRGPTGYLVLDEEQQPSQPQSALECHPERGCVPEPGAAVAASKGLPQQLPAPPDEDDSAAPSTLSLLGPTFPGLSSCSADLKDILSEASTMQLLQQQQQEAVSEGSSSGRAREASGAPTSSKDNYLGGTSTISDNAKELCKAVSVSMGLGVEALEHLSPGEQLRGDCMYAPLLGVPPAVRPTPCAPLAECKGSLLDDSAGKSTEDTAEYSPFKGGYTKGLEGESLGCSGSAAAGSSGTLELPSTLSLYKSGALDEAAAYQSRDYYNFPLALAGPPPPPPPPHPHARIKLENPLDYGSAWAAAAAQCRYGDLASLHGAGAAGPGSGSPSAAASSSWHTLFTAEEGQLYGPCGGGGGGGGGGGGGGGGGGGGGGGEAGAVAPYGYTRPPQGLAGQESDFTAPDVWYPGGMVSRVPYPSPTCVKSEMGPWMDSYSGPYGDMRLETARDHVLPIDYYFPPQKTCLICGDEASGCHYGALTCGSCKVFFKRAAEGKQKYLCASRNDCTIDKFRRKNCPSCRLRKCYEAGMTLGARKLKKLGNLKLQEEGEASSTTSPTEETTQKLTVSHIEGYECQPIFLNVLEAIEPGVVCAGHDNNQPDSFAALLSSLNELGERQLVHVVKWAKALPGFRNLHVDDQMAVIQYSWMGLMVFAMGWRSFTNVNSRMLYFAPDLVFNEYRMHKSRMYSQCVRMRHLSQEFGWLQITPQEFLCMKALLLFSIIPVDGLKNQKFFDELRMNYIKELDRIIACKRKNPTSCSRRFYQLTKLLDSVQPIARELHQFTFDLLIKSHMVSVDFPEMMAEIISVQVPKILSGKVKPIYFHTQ
Target sequence in this assay (Q96SW2 whole entry, looked up): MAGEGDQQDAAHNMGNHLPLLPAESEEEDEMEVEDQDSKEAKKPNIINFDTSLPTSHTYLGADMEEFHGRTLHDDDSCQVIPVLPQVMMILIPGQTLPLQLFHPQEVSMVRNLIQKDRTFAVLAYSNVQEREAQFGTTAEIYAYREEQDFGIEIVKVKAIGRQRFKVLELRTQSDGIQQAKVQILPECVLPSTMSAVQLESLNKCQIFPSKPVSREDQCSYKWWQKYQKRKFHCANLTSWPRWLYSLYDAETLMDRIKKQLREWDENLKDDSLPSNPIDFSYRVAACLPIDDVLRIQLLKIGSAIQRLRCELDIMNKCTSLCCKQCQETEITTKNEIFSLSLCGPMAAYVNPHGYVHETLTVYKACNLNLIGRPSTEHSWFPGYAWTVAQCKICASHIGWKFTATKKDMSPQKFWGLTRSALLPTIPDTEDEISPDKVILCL

[3] = molecular target: T1, Protein cereblon/Androgen receptor; assay: PROTAC activity at CRBN/AR in human VCaP cells assessed as induction of AR degradation at 50 nM preincubated with MLN4924 followed by compound addition and measured after 12 hrs by Western blot analysis; type: cell-based
Target sequence in this assay (P10275 whole entry, looked up): as the sequence (P10275 whole entry, looked up) above
Target sequence in this assay (Q96SW2 whole entry, looked up): as the sequence (Q96SW2 whole entry, looked up) above

[4] = system: Protein cereblon/Androgen receptor (Homo sapiens), P10275+Q96SW2 [UNDEFINED MUTATION]; assay: PROTAC activity at CRBN/Androgen receptor splice variant 7 in human 22Rv1 cells assessed as induction of AR-V7 degradation at 20 nM incubated for 36 hrs by Western blot analysis (reference value: 0%); type: cell-based
Chain of Protein cereblon/Androgen receptor (Homo sapiens), P10275+Q96SW2 [UNDEFINED MUTATION] (P10275 whole entry, looked up, stated change not applied, canonical isoform): as the sequence (P10275 whole entry, looked up) above
Chain of Protein cereblon/Androgen receptor (Homo sapiens), P10275+Q96SW2 [UNDEFINED MUTATION] (Q96SW2 whole entry, looked up, stated change not applied, canonical isoform): as the sequence (Q96SW2 whole entry, looked up) above

[5] = molecular target: T2, Protein cereblon/Eukaryotic peptide chain release factor GTP-binding subunit ERF3A (Homo sapiens, UniProt Q96SW2+P15170); assay: Molecular glue activity at CRBN/GSPT1 in human Enzalutamide-resistant LNCaP cells assessed as induction of GSPT1 degradation at 1 to 300 nM by Western blot analysis; type: cell-based; conditions: dose 1-300 nM
T2 sequence (P15170 whole entry, looked up): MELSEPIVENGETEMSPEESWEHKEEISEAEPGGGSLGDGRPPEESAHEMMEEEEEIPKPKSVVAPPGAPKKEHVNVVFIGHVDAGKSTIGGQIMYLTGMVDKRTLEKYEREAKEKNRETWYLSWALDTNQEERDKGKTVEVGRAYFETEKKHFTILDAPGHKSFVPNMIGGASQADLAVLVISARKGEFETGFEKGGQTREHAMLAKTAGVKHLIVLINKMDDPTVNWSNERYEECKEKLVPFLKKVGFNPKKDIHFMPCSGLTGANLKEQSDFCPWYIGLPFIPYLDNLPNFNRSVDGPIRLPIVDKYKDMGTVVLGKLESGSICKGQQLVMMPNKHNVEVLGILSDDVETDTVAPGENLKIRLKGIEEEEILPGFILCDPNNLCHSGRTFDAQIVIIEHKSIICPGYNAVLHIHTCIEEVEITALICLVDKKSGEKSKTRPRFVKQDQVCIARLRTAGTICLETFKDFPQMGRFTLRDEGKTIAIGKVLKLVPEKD
T2 sequence (Q96SW2 whole entry, looked up): as the sequence (Q96SW2 whole entry, looked up) above

[6] = molecular target: T1, Protein cereblon/Androgen receptor; assay: PROTAC activity at CRBN/AR in human 22Rv1 cells assessed as decrease in TMPRSS2 mRNA level at 1 to 3 nM incubated for 24 hrs by qRT-PCR analysis; type: cell-based; conditions: dose 1-3 nM
Target sequence in this assay (P10275 whole entry, looked up): as the sequence (P10275 whole entry, looked up) above
Target sequence in this assay (Q96SW2 whole entry, looked up): as the sequence (Q96SW2 whole entry, looked up) above

[7] = molecular target: T1, Protein cereblon/Androgen receptor; assay: PROTAC activity at CRBN/AR in human 22Rv1 cells assessed as induction of AR degradation incubated for 24 hrs by Western blot analysis; type: cell-based
CWR22R [8] = assay: Induction of apoptosis in human 22Rv1 cells assessed as increase in cleaved caspase-3 expression incubated for 24 hrs by Western blot analysis; type: functional, cell-based; conditions: dose 1-30 nM
CWR22R [9] = assay: Upregulation of ribosome-related pathway gene expression in human 22Rv1 cells at 3 nM incubated for 24 hrs by GSEA analysis; type: functional, cell-based
22Rv1 = assay: Induction of GSPT1 degradation in human 22Rv1 cells transfected with CRBN siRNA at 30 nM incubated for 24 hrs by Western blot analysis; type: cell-based
[10] = system: Protein cereblon/Androgen receptor (Homo sapiens), P10275+Q96SW2 [UNDEFINED MUTATION]; assay: PROTAC activity at CRBN/Androgen receptor splice variant 7 in human 22Rv1 cells assessed as induction of AR-V7 degradation at 20 nM incubated for 24 hrs by Western blot analysis (reference value: 0%); type: cell-based
[11] = molecular target: T1, Protein cereblon/Androgen receptor; assay: PROTAC activity at CRBN/AR in human 22Rv1 cells assessed as induction of AR degradation at 20 nM incubated for 2 hrs by Western blot analysis (reference value: 0 %); type: cell-based
Target sequence in this assay (P10275 whole entry, looked up): as the sequence (P10275 whole entry, looked up) above
Target sequence in this assay (Q96SW2 whole entry, looked up): as the sequence (Q96SW2 whole entry, looked up) above

[12] = molecular target: T2, Protein cereblon/Eukaryotic peptide chain release factor GTP-binding subunit ERF3A; assay: Molecular glue activity at CRBN/GSPT1 in human 22Rv1 cells assessed as induction of GSPT1 degradation at 20 nM incubated for 6 hrs by Western blot analysis (reference value: 0 %); type: cell-based
[13] = molecular target: T1, Protein cereblon/Androgen receptor; assay: PROTAC activity at CRBN/AR in human 22Rv1 cells assessed as decrease in FKBP51 protein level incubated for 24 hrs by Western blot analysis; type: cell-based; conditions: dose 1-10 nM
Target sequence in this assay (P10275 whole entry, looked up): as the sequence (P10275 whole entry, looked up) above
Target sequence in this assay (Q96SW2 whole entry, looked up): as the sequence (Q96SW2 whole entry, looked up) above

[14] = molecular target: T2, Protein cereblon/Eukaryotic peptide chain release factor GTP-binding subunit ERF3A; assay: Molecular glue activity at CRBN/GSPT1 in human 22Rv1 cells assessed as increase in GSPT1 polyubiquitination at 30 nM preincubated with compound for 12 hrs followed by MG132 addition and measured after 12 hrs by immunoprecipitation based Western blot analysis; type: cell-based; conditions: time 24.0 hrs
[15] = molecular target: T1, Protein cereblon/Androgen receptor; assay: PROTAC activity at CRBN/AR in human Enzalutamide-resistant LNCaP cells assessed as induction of androgen receptor degradation at 1 to 300 nM by Western blot analysis; type: cell-based; conditions: dose 1-300 nM
Target sequence in this assay (P10275 whole entry, looked up): as the sequence (P10275 whole entry, looked up) above
Target sequence in this assay (Q96SW2 whole entry, looked up): as the sequence (Q96SW2 whole entry, looked up) above

[16] = molecular target: T1, Protein cereblon/Androgen receptor; assay: PROTAC activity at CRBN/AR in human LNCaP cells assessed as decrease in PSA mRNA level at 10 to 100 nM incubated for 24 hrs by qRT-PCR analysis; type: cell-based; conditions: dose 10-100 nM
[17] = molecular target: T1, Protein cereblon/Androgen receptor; assay: PROTAC activity at CRBN/AR in human 22Rv1 cells assessed as decrease in TMPRSS2 protein level incubated for 24 hrs by Western blot analysis; type: cell-based; conditions: dose 1-10 nM
[18] = molecular target: T2, Protein cereblon/Eukaryotic peptide chain release factor GTP-binding subunit ERF3A; assay: Molecular glue activity at CRBN/GSPT1 in human 22Rv1 cells assessed as induction of GSPT1 degradation at 50 nM preincubated with MLN4924 followed by compound addition and measured after 12 hrs by Western blot analysis; type: cell-based
[19] = molecular target: T1, Protein cereblon/Androgen receptor; assay: PROTAC activity at CRBN/AR in human LNCaP cells assessed as induction of AR degradation by measuring maximal efficacy incubated for 24 hrs by Western blot analysis relative to control; type: cell-based
[20] = system: Protein cereblon/Androgen receptor (Homo sapiens), P10275+Q96SW2 [UNDEFINED MUTATION]; assay: PROTAC activity at CRBN/Androgen receptor splice variant 7 in human 22Rv1 cells assessed as induction of AR-V7 degradation by measuring maximal efficacy incubated for 24 hrs by Western blot analysis relative to control; type: cell-based
[21] = system: Protein cereblon/Androgen receptor (Homo sapiens), P10275+Q96SW2 [UNDEFINED MUTATION]; assay: PROTAC activity at CRBN/Androgen receptor splice variant 7 in human 22Rv1 cells assessed as induction of AR-V7 degradation at 20 nM incubated for 1 hrs by Western blot analysis (reference value: 0%); type: cell-based
[22] = Cytotoxicity against human THLE-2 cells assessed as cell growth inhibition incubated for 72 hrs by Celltiter-lumi luminescent cell viability assay; type: toxicity, cell-based
[23] = molecular target: T2, Protein cereblon/Eukaryotic peptide chain release factor GTP-binding subunit ERF3A; assay: Molecular glue activity at CRBN/GSPT1 in human 22Rv1 cells assessed as induction of GSPT1 degradation at 20 nM incubated for 2 hrs by Western blot analysis (reference value: 0 %); type: cell-based
[24] = molecular target: T2, Protein cereblon/Eukaryotic peptide chain release factor GTP-binding subunit ERF3A; assay: Molecular glue activity at CRBN/GSPT1 in human 22Rv1 cells assessed as induction of GSPT1 degradation at 20 uM preincubated with EPI-002 for 4 hrs followed by compound addition and measured after 36 hrs by Western blot analysis; type: cell-based
[25] = molecular target: T1, Protein cereblon/Androgen receptor; assay: PROTAC activity at CRBN/AR in human 22Rv1 cells assessed as induction of AR degradation at 20 nM incubated for 6 hrs by Western blot analysis (reference value: 0 %); type: cell-based
[26] = molecular target: T1, Protein cereblon/Androgen receptor; assay: PROTAC activity at CRBN/AR in human VCaP cells assessed as induction of AR degradation incubated for 24 hrs by Western blot analysis; type: cell-based
[27] = molecular target: T1, Protein cereblon/Androgen receptor; assay: PROTAC activity at CRBN/AR in human VCaP cells assessed as induction of AR degradation by measuring maximal efficacy incubated for 24 hrs by Western blot analysis relative to control; type: cell-based
CWR22R [28] = assay: Cell cycle arrest in human 22Rv1 cells assessed as accumulation of cells at G1 phase at 30 nM incubated for 24 hrs by flow cytometric analysis (reference value: 49.7 %); type: functional
[29] = Selectivity ratio of IC50 for antiproliferative activity against AR-independent human DU-145 cells assessed as cell growth inhibition to IC50 for antiproliferative activity against AR-dependent human 22Rv1 cells assessed as cell growth inhibition; type: functional
Androgen receptor = Androgen receptor (Homo sapiens, UniProt P10275, F877L); assay: Inhibition of AR F876L mutant (unknown origin) transcriptional activity transfected in HEK293T cells co-transfected with PSA-luciferase reporter and pRL-TK assessed as reduction in PSA-luciferase activity incubated for 24 hrs by luminescence based microplate reader analysis; type: cell-based
Chain of Androgen receptor (P10275 whole entry F877L): as the sequence (P10275 whole entry, looked up) above, with F877L counted along it

COc1ccc(C(C)(C)c2cc(Cl)c(OCC3CCN(C(=O)CCCCCNc4ccc5c(c4)C(=O)N(C4CCC(=O)NC4=O)C5=O)CC3)c(C#N)c2)cc1 (stereo not drawn)
pIC50 [1]: 7.60 | Activity [2]: Time-dependent-effect | Activity [3]: inactive | Activity [4]: 98.3% | Activity [5]: Active | Activity [6]: Active | Activity [7]: Dose-dependent-effect | DC50 [7]: 3.7 nM | Activity (CWR22R [8]): Dose-dependent-effect | Activity (CWR22R [9]): Active | Activity (22Rv1): inactive | Activity [10]: 95.5% | Activity [11]: 56.3% | Activity [12]: 98.6% | Activity [13]: Dose-dependent-effect | Activity [14]: Active | Activity [15]: Active | Activity [16]: Active | Activity [17]: Dose-dependent-effect | Activity [18]: inactive | Emax [19]: 78.7% | Emax [20]: 92.6% | Activity [21]: 13.3% | IC50 at 72 h [22]: > 10000 nM | Activity [23]: 74.6% | Activity [24]: Active | Activity [25]: 49.7% | Activity [26]: Dose-dependent-effect | DC50 [26]: 2 nM | Emax [27]: 82.5% | Activity (CWR22R [28]): 74.6% | Ratio IC50 [29]: 802 | pIC50 (Androgen receptor): 7.31
